ChEMBL document CHEMBL1155501, “Studies on two types of PTP1B inhibitors for the treatment of type 2 diabetes: Hologram QSAR for OBA and BBB analogues” (Bioorg Med Chem Lett, 2010)

The compounds below were run against T1, Tyrosine-protein phosphatase non-receptor type 1 (Homo sapiens, UniProt P18031) (assay: Binding affinity to human recombinant PTP1B).
T1 sequence (P18031 whole entry): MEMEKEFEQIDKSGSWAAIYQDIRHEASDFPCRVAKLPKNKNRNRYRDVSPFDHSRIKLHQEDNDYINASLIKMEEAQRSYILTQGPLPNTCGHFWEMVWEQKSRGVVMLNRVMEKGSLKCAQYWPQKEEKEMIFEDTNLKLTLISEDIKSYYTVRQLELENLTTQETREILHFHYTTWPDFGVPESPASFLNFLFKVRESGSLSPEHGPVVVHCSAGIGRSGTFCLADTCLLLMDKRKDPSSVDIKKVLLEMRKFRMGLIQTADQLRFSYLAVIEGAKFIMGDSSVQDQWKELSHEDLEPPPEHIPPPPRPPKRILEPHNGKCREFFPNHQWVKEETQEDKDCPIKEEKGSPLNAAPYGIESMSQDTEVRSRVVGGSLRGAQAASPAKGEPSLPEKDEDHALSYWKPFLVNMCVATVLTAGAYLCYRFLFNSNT

IC50	Ki	SMILES
0.12 µM		O=C(O)[C@H](Oc1ccc(-c2ccc(-c3c(Cc4ccc(O)cc4O)sc4ccccc34)cc2)cc1)c1ccccc1
2.19 µM		CCCCc1sc2ccccc2c1-c1ccc(-c2ccc(OCC(=O)O)cc2)cc1
0.447 µM		Oc1c(Br)cc(-c2ccc(-c3c(Cc4ccccc4)sc4ccccc34)cc2)cc1Br
	6.03 µM	O=C(O)C(=O)Nc1sc2c(c1C(=O)O)CCS(=O)(=O)C2

More lines, now with the values behind:

SMILES	IC50	Ki
O=C(O)/C=C/C(=O)Nc1cc(-c2ccc(-c3c(Cc4ccccc4)oc4ccccc34)cc2)ccc1O	0.457 µM	
Cc1cccc(C(=O)O)c1NC(=O)C(=O)O		1260 µM
Nc1cccc(-c2cc(NC(=O)C(=O)O)c(C(=O)O)s2)c1		6.03 µM
CCCCc1sc2ccccc2c1-c1ccc(-c2ccc(O)cc2)cc1	0.692 µM	
